Test results as given in patent publication US11214594B2, “Antimicrobial peptide having synergistic antibacterial effect with antibiotics on multidrug resistant bacteria, and use thereof” (priority 2016, dated 2022).
≈ marks a conversion by molar mass, not a printed value. Where a SMILES comes first, the peptide text is derived from it. [ ]: non-standard residue; d: D form.

Tests used:
MDREC 1238 = assay type: cell-based, Escherichia coli
Outline: (§1)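 Each strain is brought to 2×10^6 CFU in nutrient-sufficient Mueller-Hinton medium and dispensed into wells. Peptide solutions, stepwise diluted 2:1 in the same medium, are then added. The minimal concentration preventing growth gives the MIC.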

MDRST 8007 = experiment: Minimal inhibitory concentration (MIC), single agent; assay type: cell-based, Salmonella typhimurium; settings: agent alone
Outline: as §1

P. aeruginosa = experiment: microbe, parasite or virus in culture; assay type: cell-based, Pseudomonas aeruginosa
Outline: as §1

MDRST 8009 = assay type: cell-based, Salmonella typhimurium; settings: agent alone
Outline: as §1

S. typhimurium = experiment: microbe, parasite or virus in culture; assay type: cell-based, Salmonella typhimurium
Outline: as §1

MRSA 3114 = assay type: cell-based, Staphylococcus aureus; settings: 3114
Outline: as §1

MRSA 3126 = assay type: cell-based, Staphylococcus aureus; settings: 3126
Outline: as §1

MDREC 1229 [1] = experiment: MIC of antibiotic during combined treatment with antimicrobial peptide; assay type: cell-based, Escherichia coli
Outline: (§2)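 Antibiotic MIC came from antibiotic dilutions added to bacteria (2×10^6 CFU/ml, MH medium) already combined with peptide serially diluted 2:1 from its own MIC. Swapping the roles of the two agents gave the peptide MIC.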

E. coli [2] = experiment: as above; assay type: cell-based, Escherichia coli; settings: for Antibiotic MIC, Erythromycin / Antibiotic MIC, Linezolid / Antibiotic MIC, Vancomycin: E. coli
Outline: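 MIC values for mixed peptide plus antibiotic solutions were measured in MH medium.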

MDRAB 12035 = experiment: MIC of antimicrobial peptide during combined treatment with antibiotic; assay type: cell-based, Acinetobacter baumannii
Outline: as §2

A. baumannii = experiment: as above; assay type: cell-based, Acinetobacter baumannii
Outline: as §2

S. epidermidis = experiment: microbe, parasite or virus in culture; assay type: cell-based, Staphylococcus epidermidis
Outline: as §1

S. aureus = experiment: microbe, parasite or virus in culture; assay type: cell-based, Staphylococcus aureus
Outline: as §1

E. coli [3] = experiment: microbe, parasite or virus in culture; assay type: cell-based, Escherichia coli; settings: 16 h
Outline: as §1

MDREC 1229 [4] = experiment: microbe, parasite or virus in culture; assay type: cell-based, Escherichia coli
Outline: as §1

MDRAB 12036 = assay type: cell-based, Acinetobacter baumannii
Outline: as §1

[5] = peptide treatment concentration 1 μg/ml
[6] = peptide treatment concentration 2 μg/ml
[7] = peptide treatment concentration 4 μg/ml
[8] = peptide treatment concentration 6 μg/ml
[9] = peptide treatment concentration 8 μg/ml
[10] = peptide treatment concentration 16 μg/ml
[11] = peptide treatment concentration 32 μg/ml
[12] = peptide treatment concentration 64 μg/ml
[13] = erythromycin 4 μg/ml (Conc./MIC 1/8)
[14] = erythromycin 8 μg/ml (Conc./MIC 1/4)
[15] = erythromycin 16 μg/ml (Conc./MIC 1/2)
[16] = erythromycin 32 μg/ml (Conc./MIC 1)
[17] = vancomycin 512 μg/ml (Conc./MIC 1/2)
[18] = vancomycin 1024 μg/ml (Conc./MIC 1)

## CC[C@H](C)[C@H](NC(=O)[C@H](CCCCN)NC(=O)[C@H](Cc1c[nH]c2ccccc12)NC(=O)[C@@H](N)CCCNC(=N)N)C(=O)N[C@@H](Cc1ccccc1)C(=O)N[C@@H](CCCCN)C(=O)N[C@@H](CCCCN)C(=O)N[C@H](C(=O)N[C@H](CCCCN)C(=O)N[C@@H](CCCCN)C(=O)N[C@@H](CC(C)C)C(=O)N[C@@H](CC(C)C)C(=O)N[C@@H](Cc1c[nH]cn1)C(=O)N[C@@H](CCC(=O)O)C(=O)N[C@@H](C)C(=O)N[C@@H](CCCCN)C(=O)N[C@@H](CCCCN)C(=O)N[C@@H](Cc1c[nH]c2ccccc12)C(N)=O)[C@@H](C)CC [PapMA-20, RWK IFK KIk KLL HEA KKW-NH2] (H-RWKIFKKI[dK]KLLHEAKKW-NH2; N-terminus assumed)
MDREC 1238
  Minimal inhibitory concentration MIC: 32 µg/mL (≈ 13.4 µM)
MDRST 8007
  Minimal inhibitory concentration MIC: 64 µg/mL (≈ 26.9 µM)
P. aeruginosa
  Minimal inhibitory concentration MIC: 64 µg/mL (≈ 26.9 µM)
MDRST 8009
  Minimal inhibitory concentration MIC: 64 µg/mL (≈ 26.9 µM)
S. typhimurium
  Minimal inhibitory concentration MIC: 32 µg/mL (≈ 13.4 µM)
MRSA 3114
  Minimal inhibitory concentration MIC: >128 µg/mL
MRSA 3126
  Minimal inhibitory concentration MIC: >128 µg/mL
MDREC 1229 [1]; [5]
  Antibiotic MIC, Erythromycin: 128 µg/mL
  Antibiotic MIC, Linezolid: >128 µg/mL
  Antibiotic MIC, Vancomycin: >128 µg/mL
MDREC 1229 [1]; [6]
  Antibiotic MIC, Erythromycin: 32 µg/mL
  Antibiotic MIC, Linezolid: 64 µg/mL
  Antibiotic MIC, Vancomycin: >128 µg/mL
MDREC 1229 [1]; [7]
  Antibiotic MIC, Erythromycin: 8 µg/mL
  Antibiotic MIC, Linezolid: 16 µg/mL
  Antibiotic MIC, Vancomycin: 64 µg/mL
MDREC 1229 [1]; [8]
  Antibiotic MIC, Erythromycin: 2 µg/mL
  Antibiotic MIC, Linezolid: 16 µg/mL
  Antibiotic MIC, Vancomycin: 16 µg/mL
MDREC 1229 [1]; [9]
  Antibiotic MIC, Erythromycin: 1 µg/mL
  Antibiotic MIC, Linezolid: 8 µg/mL
  Antibiotic MIC, Vancomycin: 8 µg/mL
MDREC 1229 [1]; [10]
  Antibiotic MIC, Erythromycin: 0 µg/mL
  Antibiotic MIC, Linezolid: 0 µg/mL
  Antibiotic MIC, Vancomycin: 0 µg/mL
MDREC 1229 [1]; [11]
  Antibiotic MIC, Erythromycin: 0 µg/mL
  Antibiotic MIC, Linezolid: 0 µg/mL
  Antibiotic MIC, Vancomycin: 0 µg/mL
MDREC 1229 [1]; [12]
  Antibiotic MIC, Erythromycin: 0 µg/mL
  Antibiotic MIC, Linezolid: 0 µg/mL
  Antibiotic MIC, Vancomycin: 0 µg/mL
E. coli [2]; E. coli and MDREC1229
  Synergistic effect of antibacterial activity with existing antibiotics compared with PapMA-1: higher level than the PapMA-1 peptide
E. coli [2]; erythromycin combined with peptide at 1 μg/ml
  Antibiotic MIC, Erythromycin: 64 µg/mL
E. coli [2]; erythromycin combined with peptide at 2 μg/ml
  Antibiotic MIC, Erythromycin: 32 µg/mL
E. coli [2]; erythromycin combined with peptide at 4 μg/ml
  Antibiotic MIC, Erythromycin: 8 µg/mL
E. coli [2]; erythromycin combined with peptide at 6 μg/ml
  Antibiotic MIC, Erythromycin: 1 µg/mL
E. coli [2]; erythromycin combined with peptide at 8 μg/ml
  Antibiotic MIC, Erythromycin: 0.5 µg/mL
E. coli [2]; erythromycin combined with peptide at 16 μg/ml
  Antibiotic MIC, Erythromycin: 0 µg/mL
E. coli [2]; erythromycin combined with peptide at 32 μg/ml
  Antibiotic MIC, Erythromycin: 0 µg/mL
E. coli [2]; erythromycin combined with peptide at 64 μg/ml
  Antibiotic MIC, Erythromycin: 0 µg/mL
E. coli [2]; linezolid combined with peptide at 1 μg/ml
  Antibiotic MIC, Linezolid: >128 µg/mL
E. coli [2]; linezolid combined with peptide at 2 μg/ml
  Antibiotic MIC, Linezolid: 64 µg/mL
E. coli [2]; linezolid combined with peptide at 4 μg/ml
  Antibiotic MIC, Linezolid: 16 µg/mL
E. coli [2]; linezolid combined with peptide at 6 μg/ml
  Antibiotic MIC, Linezolid: 8 µg/mL
E. coli [2]; linezolid combined with peptide at 8 μg/ml
  Antibiotic MIC, Linezolid: 4 µg/mL
E. coli [2]; linezolid combined with peptide at 16 μg/ml
  Antibiotic MIC, Linezolid: 0 µg/mL
E. coli [2]; linezolid combined with peptide at 32 μg/ml
  Antibiotic MIC, Linezolid: 0 µg/mL
E. coli [2]; linezolid combined with peptide at 64 μg/ml
  Antibiotic MIC, Linezolid: 0 µg/mL
E. coli [2]; vancomycin combined with peptide at 1 μg/ml
  Antibiotic MIC, Vancomycin: >128 µg/mL
E. coli [2]; vancomycin combined with peptide at 2 μg/ml
  Antibiotic MIC, Vancomycin: >128 µg/mL
E. coli [2]; vancomycin combined with peptide at 4 μg/ml
  Antibiotic MIC, Vancomycin: 64 µg/mL
E. coli [2]; vancomycin combined with peptide at 6 μg/ml
  Antibiotic MIC, Vancomycin: 16 µg/mL
E. coli [2]; vancomycin combined with peptide at 8 μg/ml
  Antibiotic MIC, Vancomycin: 8 µg/mL
E. coli [2]; vancomycin combined with peptide at 16 μg/ml
  Antibiotic MIC, Vancomycin: 0 µg/mL
E. coli [2]; vancomycin combined with peptide at 32 μg/ml
  Antibiotic MIC, Vancomycin: 0 µg/mL
E. coli [2]; vancomycin combined with peptide at 64 μg/ml
  Antibiotic MIC, Vancomycin: 0 µg/mL
MDRAB 12035; [13]
  Peptide MIC during treatment with erythromycin: 4 µg/mL
MDRAB 12035; [14]
  Peptide MIC during treatment with erythromycin: 4 µg/mL
MDRAB 12035; [15]
  Peptide MIC during treatment with erythromycin: 2 µg/mL
MDRAB 12035; [16]
  Peptide MIC during treatment with erythromycin: 0 µg/mL
MDRAB 12035; linezolid 64 μg/ml (Conc./MIC 1/8)
  Peptide MIC during treatment with linezolid: 4 µg/mL
MDRAB 12035; linezolid 512 μg/ml (Conc./MIC 1)
  Peptide MIC during treatment with linezolid: 0 µg/mL
MDRAB 12035; linezolid […] (Conc./MIC 1/2)
  Peptide MIC during treatment with linezolid: 1 µg/mL
MDRAB 12035; linezolid […] (Conc./MIC 1/4)
  Peptide MIC during treatment with linezolid: 2 µg/mL
MDRAB 12035; [17]
  Peptide MIC during treatment with vancomycin: 2 µg/mL
MDRAB 12035; [18]
  Peptide MIC during treatment with vancomycin: 1 µg/mL
MDRAB 12035; vancomycin […] (Conc./MIC 1/4)
  Peptide MIC during treatment with vancomycin: 2 µg/mL
MDRAB 12035; vancomycin […] (Conc./MIC 1/8)
  Peptide MIC during treatment with vancomycin: 4 µg/mL
A. baumannii; [13]
  Peptide MIC during treatment with antibiotic: 4 µg/mL
A. baumannii; [14]
  Peptide MIC during treatment with antibiotic: 4 µg/mL
A. baumannii; [15]
  Peptide MIC during treatment with antibiotic: 2 µg/mL
A. baumannii; [16]
  Peptide MIC during treatment with antibiotic: 0 µg/mL
A. baumannii; linezolid 32 μg/ml (Conc./MIC 1/8)
  Peptide MIC during treatment with antibiotic: 4 µg/mL
A. baumannii; linezolid 64 μg/ml (Conc./MIC 1/4)
  Peptide MIC during treatment with antibiotic: 2 µg/mL
A. baumannii; linezolid […] (Conc./MIC 1)
  Peptide MIC during treatment with antibiotic: 0 µg/mL
A. baumannii; linezolid […] (Conc./MIC 1/2)
  Peptide MIC during treatment with antibiotic: 1 µg/mL
A. baumannii; [17]
  Peptide MIC during treatment with antibiotic: 0.25 µg/mL
A. baumannii; [18]
  Peptide MIC during treatment with antibiotic: 0 µg/mL
A. baumannii; vancomycin […] (Conc./MIC 1/4)
  Peptide MIC during treatment with antibiotic: 0.5 µg/mL
A. baumannii; vancomycin […] (Conc./MIC 1/8)
  Peptide MIC during treatment with antibiotic: 4 µg/mL
S. epidermidis
  Minimal inhibitory concentration MIC: >128 µg/mL
S. aureus
  Minimal inhibitory concentration MIC: >128 µg/mL
E. coli [3]
  Minimal inhibitory concentration MIC: 16 µg/mL (≈ 6.72 µM)
MDREC 1229 [4]
  Minimal inhibitory concentration MIC: 16 µg/mL (≈ 6.72 µM)
  Peptide MIC, peptide alone: 16 µg/mL
MDRAB 12036
  Minimal inhibitory concentration MIC: 16 µg/mL (≈ 6.72 µM)
